Assay results as given in ChEMBL document CHEMBL3885881, “DrugMatrix”.

Species: Rattus norvegicus
Assay: DrugMatrix - Regimen: Daily Repeat
Format: toxicity, organism-based, Sprague-Dawley
Design: regimen Daily Repeat, gender Male, age 6-8 weeks
Conditions: in vivo, po, route oral GAVAGE, vehicle 100 % WATER; for ABSOLUTE BASOPHIL / ABSOLUTE EOSINOPHIL / ABSOLUTE LYMPHOCYTE / ABSOLUTE MONOCYTE / ABSOLUTE SEGMENTED NEUTROPHIL / BASOPHIL / EOSINOPHIL / ERYTHROCYTE COUNT / HEMATOCRIT / HEMOGLOBIN / LEUKOCYTE COUNT / LYMPHOCYTE / MEAN CORPUSCULAR HEMOGLOBIN / MEAN CORPUSCULAR HEMOGLOBIN CONCENTRATION / MEAN CORPUSCULAR VOLUME / MONOCYTE / NEUTROPHIL / NUCLEATED RED BLOOD CELLS / PLATELET COUNT: tissue Blood; for ALANINE AMINOTRANSFERASE / ALBUMIN / ALKALINE PHOSPHATASE / ASPARTATE AMINOTRANSFERASE / BLOOD UREA NITROGEN / CARBON DIOXIDE / CHLORIDE / CHOLESTEROL / CREATINE PHOSPHOKINASE / CREATININE / GLUCOSE / LACTATE DEHYDROGENASE / LIPASE / PHOSPHORUS / POTASSIUM / SODIUM / TOTAL BILIRUBIN / TOTAL PROTEIN / URIC ACID: tissue Plasma
[1] = 160 mg/kg, 120 h, dose level Low, time 5 day
[2] = 1000 mg/kg, 72 h, dose level High, time 3 day
[3] = 1000 mg/kg, 120 h, dose level High, time 5 day

N[C@@H](Cc1ccc(O)c(O)c1)C(=O)O [LEVODOPA]
ABSOLUTE BASOPHIL [1]: 0 CELLS/uL
ABSOLUTE EOSINOPHIL [1]: 0 CELLS/uL
ABSOLUTE LYMPHOCYTE [1]: 7319.33 CELLS/uL
ABSOLUTE MONOCYTE [1]: 56 CELLS/uL
ABSOLUTE SEGMENTED NEUTROPHIL [1]: 1058 CELLS/uL
BASOPHIL [1]: 0%
EOSINOPHIL [1]: 0%
ERYTHROCYTE COUNT [1]: 5.23 x10E6/uL
HEMATOCRIT [1]: 34.27%
HEMOGLOBIN [1]: 13 G/DL
LEUKOCYTE COUNT [1]: 8.43 x10E3/uL
LYMPHOCYTE [1]: 87.67%
MEAN CORPUSCULAR HEMOGLOBIN [1]: 25.13 pg
MEAN CORPUSCULAR HEMOGLOBIN CONCENTRATION [1]: 38 G/DL
MEAN CORPUSCULAR VOLUME [1]: 66.13 fL
MONOCYTE [1]: 0.67%
NEUTROPHIL [1]: 11.67%
NUCLEATED RED BLOOD CELLS [1]: 0 /100WBC
PLATELET COUNT [1]: 1259.67 x10E3/uL
ALANINE AMINOTRANSFERASE [1]: 48 u/L
ALBUMIN [1]: 4.1 G/DL
ALKALINE PHOSPHATASE [1]: 360.33 u/L
ASPARTATE AMINOTRANSFERASE [1]: 84.33 u/L
BLOOD UREA NITROGEN [1]: 16 mg/dL
CARBON DIOXIDE [1]: 30.33 mmol/L
CHLORIDE [1]: 103 MEQ/L
CHOLESTEROL [1]: 58 mg/dL
CREATINE PHOSPHOKINASE [1]: 286.33 u/L
CREATININE [1]: 0.17 mg/dL
GLUCOSE [1]: 137 mg/dL
LACTATE DEHYDROGENASE [1]: 128 u/L
LIPASE [1]: 10 u/L
PHOSPHORUS [1]: 10.63 mg/dL
POTASSIUM [1]: 6.08 MEQ/L
SODIUM [1]: 145.37 MEQ/L
TOTAL BILIRUBIN [1]: 0.17 mg/dL
TOTAL PROTEIN [1]: 5.97 G/DL
URIC ACID [1]: 1.03 mg/dL
ABSOLUTE BASOPHIL [2]: 0 CELLS/uL
ABSOLUTE EOSINOPHIL [2]: 0 CELLS/uL
ABSOLUTE LYMPHOCYTE [2]: 14031 CELLS/uL
ABSOLUTE MONOCYTE [2]: 188.67 CELLS/uL
ABSOLUTE SEGMENTED NEUTROPHIL [2]: 780.33 CELLS/uL
BASOPHIL [2]: 0%
EOSINOPHIL [2]: 0%
ERYTHROCYTE COUNT [2]: 5.75 x10E6/uL
HEMATOCRIT [2]: 36.23%
HEMOGLOBIN [2]: 13.9 G/DL
LEUKOCYTE COUNT [2]: 15 x10E3/uL
LYMPHOCYTE [2]: 93.33%
MEAN CORPUSCULAR HEMOGLOBIN [2]: 24.2 pg
MEAN CORPUSCULAR HEMOGLOBIN CONCENTRATION [2]: 38.37 G/DL
MEAN CORPUSCULAR VOLUME [2]: 63 fL
MONOCYTE [2]: 1%
NEUTROPHIL [2]: 5.67%
NUCLEATED RED BLOOD CELLS [2]: 0.33 /100WBC
PLATELET COUNT [2]: 1320 x10E3/uL
ALANINE AMINOTRANSFERASE [2]: 57.33 u/L
ALBUMIN [2]: 4.13 G/DL
ALKALINE PHOSPHATASE [2]: 415 u/L
ASPARTATE AMINOTRANSFERASE [2]: 88 u/L
BLOOD UREA NITROGEN [2]: 14 mg/dL
CARBON DIOXIDE [2]: 32 mmol/L
CHLORIDE [2]: 101.67 MEQ/L
CHOLESTEROL [2]: 54.33 mg/dL
CREATINE PHOSPHOKINASE [2]: 336.67 u/L
CREATININE [2]: 0.2 mg/dL
GLUCOSE [2]: 120 mg/dL
LACTATE DEHYDROGENASE [2]: 167.33 u/L
LIPASE [2]: 10.33 u/L
PHOSPHORUS [2]: 11 mg/dL
POTASSIUM [2]: 6.09 MEQ/L
SODIUM [2]: 145.53 MEQ/L
TOTAL BILIRUBIN [2]: 0.17 mg/dL
TOTAL PROTEIN [2]: 6.07 G/DL
URIC ACID [2]: 0.8 mg/dL
ABSOLUTE BASOPHIL [3]: 0 CELLS/uL
ABSOLUTE EOSINOPHIL [3]: 0 CELLS/uL
ABSOLUTE LYMPHOCYTE [3]: 11289.33 CELLS/uL
ABSOLUTE MONOCYTE [3]: 104.67 CELLS/uL
ABSOLUTE SEGMENTED NEUTROPHIL [3]: 539.33 CELLS/uL
BASOPHIL [3]: 0%
EOSINOPHIL [3]: 0%
ERYTHROCYTE COUNT [3]: 6.06 x10E6/uL
HEMATOCRIT [3]: 37.27%
HEMOGLOBIN [3]: 14.47 G/DL
LEUKOCYTE COUNT [3]: 11.93 x10E3/uL
LYMPHOCYTE [3]: 95.33%
MEAN CORPUSCULAR HEMOGLOBIN [3]: 23.87 pg
MEAN CORPUSCULAR HEMOGLOBIN CONCENTRATION [3]: 38.83 G/DL
MEAN CORPUSCULAR VOLUME [3]: 61.43 fL
MONOCYTE [3]: 0.67%
NEUTROPHIL [3]: 4%
NUCLEATED RED BLOOD CELLS [3]: 0 /100WBC
PLATELET COUNT [3]: 1582 x10E3/uL
ALANINE AMINOTRANSFERASE [3]: 46.33 u/L
ALBUMIN [3]: 4.17 G/DL
ALKALINE PHOSPHATASE [3]: 308.33 u/L
ASPARTATE AMINOTRANSFERASE [3]: 68 u/L
BLOOD UREA NITROGEN [3]: 20.33 mg/dL
CARBON DIOXIDE [3]: 33.67 mmol/L
CHLORIDE [3]: 101.67 MEQ/L
CHOLESTEROL [3]: 59.33 mg/dL
CREATINE PHOSPHOKINASE [3]: 271.67 u/L
CREATININE [3]: 0.21 mg/dL
GLUCOSE [3]: 124 mg/dL
LACTATE DEHYDROGENASE [3]: 116.67 u/L
LIPASE [3]: 10 u/L
PHOSPHORUS [3]: 10.37 mg/dL
POTASSIUM [3]: 6.24 MEQ/L
SODIUM [3]: 147.43 MEQ/L
TOTAL BILIRUBIN [3]: 0.17 mg/dL
TOTAL PROTEIN [3]: 6.13 G/DL
URIC ACID [3]: 1.2 mg/dL
